# Where “and” joins values, the source holds several entries; their conditions need not be identical. Identical values can stand only once. Counter-ions that a name gives are not always drawn. Like-named read-outs stand apart in the source and are kept apart here.
# Key:
# RelA = RelA (Homo sapiens, UniProt Q04206); assay: DSE-FRET RelA–DNA binding inhibition; type: biochemical; parameters: Kinetic assay RelA Inhibition % ΔRFU(60 min-0 min) / RelA HTS % Inhibition / RelA Retest % Inhibition Run1 / RelA Retest % Inhibition Run2 / RelA Retest % Inhibition Avg. / Kinetic assay RelA % Inhibition ΔRFU(60 min-0 min): dose or concentration left out as unconfirmed; details: for RelA Retest % Inhibition Avg.: Retest average of Run1 and Run2
# Description: Plate-based (384 scale) DNA-binding experiments were carried out with 0.1 µL of 2 mM or 1 mg/mL compound, 2 µL of 80 nM NF-D1 (consisting of NF-01F and NF-14D), 1 µL of 20 ng/µL poly dI-dC, and 6.9 µL of 3.2 pmol protein in binding buffer (10 mM 4-(2-hydroxyethyl)-1-piperazineethanesulfonic acid (HEPES)–NaOH pH 7.9, 50 mM KCl, 0.1 mM ethylenediaminetetraacetic acid (EDTA), 2.5 mM dithiothreitol (DTT), 10% glycerol, and 0.05% Nonidet P40). The plates were incubated for 30 min at room temperature, after which 10 µL of NF-D2 (consisting of NF-02 and NF-13) was added. The plates were centrifuged at 1000 rpm for 30 s, followed by shaking for 30 s using a plate shaker (Biotec). Fluorescence was measured at 528 nm, after excitation at 485 nm, using a multiplate reader (Biotec) over a period of 60 min.
# p52 = target: T1, p52 (Homo sapiens, UniProt Q00653); assay: DSE-FRET p52–DNA binding inhibition; type: biochemical; parameters: p52 Retest % Inhibition Run2 / p52 Retest % Inhibition Avg. / Kinetic assay p52 Inhibition % ΔRFU(60 min-0 min) / p52 HTS % Inhibition / p52 Retest % Inhibition Run1: dose or concentration left out as unconfirmed; details: for p52 Retest % Inhibition Avg.: Retest average of Run1 and Run2
# T1 sequence (Q00653 1-454 limits assumed): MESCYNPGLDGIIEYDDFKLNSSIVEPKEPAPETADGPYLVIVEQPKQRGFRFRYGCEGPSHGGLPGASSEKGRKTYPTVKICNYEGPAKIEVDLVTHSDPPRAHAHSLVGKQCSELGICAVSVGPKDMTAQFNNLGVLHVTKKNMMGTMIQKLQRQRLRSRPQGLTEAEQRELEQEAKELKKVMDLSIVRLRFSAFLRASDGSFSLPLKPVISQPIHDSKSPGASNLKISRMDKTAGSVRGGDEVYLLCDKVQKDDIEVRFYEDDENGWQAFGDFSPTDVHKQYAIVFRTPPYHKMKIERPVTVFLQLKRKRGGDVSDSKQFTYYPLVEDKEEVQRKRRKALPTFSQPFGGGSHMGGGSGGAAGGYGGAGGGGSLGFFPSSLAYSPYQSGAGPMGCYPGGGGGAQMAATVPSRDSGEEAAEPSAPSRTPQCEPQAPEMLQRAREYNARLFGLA
# [1] = HTS, known drugs, 10 µM, read-out: RelA HTS % Inhibition @ 10 µM
# [2] = kinetic assay, 60 min-0 min, 10 µM, read-out: Kinetic assay @ 10 µM RelA % Inhibition ΔRFU(60 min-0 min)
# [3] = retest, Run1, 10 µM, read-out: RelA Retest % Inhibition @ 10 µM Run1
# [4] = retest, Run2, 10 µM, read-out: RelA Retest % Inhibition @ 10 µM Run2
# [5] = retest, average of Run1 and Run2, 10 µM, read-out: RelA Retest % Inhibition @ 10 µM Avg.
# [6] = HTS, known drugs, 10 µM, read-out: p52 HTS % Inhibition @ 10 µM
# [7] = kinetic assay, 60 min-0 min, 10 µM, read-out: Kinetic assay @ 10 µM p52 % Inhibition ΔRFU(60 min-0 min)
# [8] = retest, Run1, 10 µM, read-out: p52 Retest % Inhibition @ 10 µM Run1
# [9] = retest, Run2, 10 µM, read-out: p52 Retest % Inhibition @ 10 µM Run2
# [10] = retest, average of Run1 and Run2, 10 µM, read-out: p52 Retest % Inhibition @ 10 µM Avg.
# [11] = retest of known drugs, 1 = judged hit
# [12] = HTS, 5 µg/mL, NPDepo hits, read-out: RelA HTS % Inhibition @ 5 µg/mL
# [13] = Retest Run1, 5 µg/mL, read-out: RelA Retest % Inhibition @ 5 µg/mL Run1
# [14] = Retest Run2, 5 µg/mL, read-out: RelA Retest % Inhibition @ 5 µg/mL Run2
# [15] = Retest average of Run1 and Run2, 5 µg/mL, read-out: RelA Retest % Inhibition @ 5 µg/mL Avg.
# [16] = kinetic assay, 5 µg/mL, ΔRFU 60 min-0 min, read-out: Kinetic assay @ 5 µg/mL RelA Inhibition % ΔRFU(60 min-0 min)
# [17] = kinetic assay, ΔRFU 60 min-0 min
# Chain of RelA (Q04206 19-306 limits assumed): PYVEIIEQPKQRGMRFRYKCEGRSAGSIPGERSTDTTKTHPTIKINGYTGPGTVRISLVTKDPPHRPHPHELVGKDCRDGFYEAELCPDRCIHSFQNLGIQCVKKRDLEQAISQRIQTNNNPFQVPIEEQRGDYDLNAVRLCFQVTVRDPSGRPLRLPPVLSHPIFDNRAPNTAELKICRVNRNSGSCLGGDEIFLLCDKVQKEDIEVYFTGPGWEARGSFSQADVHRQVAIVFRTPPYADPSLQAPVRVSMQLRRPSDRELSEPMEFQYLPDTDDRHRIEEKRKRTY
Compound,"Kinetic assay RelA % Inhibition ΔRFU(60 min-0 min) (RelA; kinetic assay, 60 min-0 min)","Kinetic assay p52 % Inhibition ΔRFU(60 min-0 min) (p52; kinetic assay, 60 min-0 min)",inhibition at 10 µM (RelA; [1]),inhibition at 10 µM (RelA; [2]),inhibition at 10 µM (RelA; [3]),inhibition at 10 µM (RelA; [4]),inhibition at 10 µM (RelA; [5]),inhibition at 10 µM (p52; [6]),inhibition at 10 µM (p52; [7]),inhibition at 10 µM (p52; [8]),inhibition at 10 µM (p52; [9]),inhibition at 10 µM (p52; [10]),further results
OCCN(CCO)c1nc(N2CCCCC2)c2nc(N(CCO)CCO)nc(N3CCCCC3)c2n1 [Dipyridamole],-4.24% and -5.31%,-0.806% and -5%,,,,,,,,,,,
COc1cccc2c1C(=O)c1c(O)c3c(c(O)c1C2=O)C[C@@](O)(C(=O)CO)C[C@@H]3O[C@H]1C[C@H](N)[C@H](O)[C@H](C)O1 [Doxorubicin hydrochloride],-15%,-15% and -17%,,,,,,,,,,,
COc1cccc2c1C(=O)c1c(O)c3c(c(O)c1C2=O)C[C@@](O)(C(=O)CO)C[C@@H]3O[C@H]1C[C@H](N)[C@@H](O)[C@H](C)O1 [EPIRUBICIN HYDROCHLORIDE],,,82.2%,-11%,77.3%,88.4%,82.9%,88.4%,-11%,77.2%,88.8%,83%,
Cc1cc(-c2ccc(/N=N/c3ccc4c(S(=O)(=O)O)cc(S(=O)(=O)O)c(N)c4c3O)c(C)c2)ccc1/N=N/c1ccc2c(S(=O)(=O)O)cc(S(=O)(=O)O)c(N)c2c1O [EVANS BLUE],,,78.1%,4.59%,70.4%,77.2%,73.8%,24%,2.44%,62.3%,35.8%,49%,
O=C1Nc2ccc(I)cc2/C1=C/c1cc(Br)c(O)c(Br)c1 [GW 5074],-17%,-18%,,,,,,,,,,,
Cl[C@H]1[C@H](Cl)[C@@H](Cl)[C@@H](Cl)[C@H](Cl)[C@H]1Cl [LINDANE],,,29.3%,-1.86%,6.1%,5.6%,5.9%,31.4%,-1.69%,5.5%,6.4%,5.9%,
O=C1C(Cl)=C(NCCN2CCOCC2)C(=O)c2ncccc21 [NSC 663284],9%,1.64%,,,,,,,,,,,"RelA HTS % Inhibition (RelA; HTS, known drugs): 37.5%; RelA Retest % Inhibition Run1 (RelA): 37.2%; RelA Retest % Inhibition Run2 (RelA): 41.8%; RelA Retest % Inhibition Avg. (RelA): 39.5%; Hit Judgement of: RelA (RelA; [11]): 1; p52 HTS % Inhibition (p52; HTS, known drugs): 39.5%; p52 Retest % Inhibition Run1 (p52): 24.9%; p52 Retest % Inhibition Run2 (p52): 28.6%; p52 Retest % Inhibition Avg. (p52): 26.7%; Hit Judgement of: p52 (p52; [11]): 1"
COC(=O)[C@@H]1c2cc3c(c(O)c2[C@@H](O[C@@H]2O[C@@H](C)[C@H](OC)[C@@](C)(OC)[C@H]2OC)C[C@]1(C)O)C(=O)c1c(O)cc2c(c1C3=O)O[C@@H]1O[C@@]2(C)[C@H](O)[C@@H](N(C)C)[C@@H]1O [Nogalamycin],,,,,,,,,,,,,"inhibition at 5 µg/mL (RelA; [12]): 128%; inhibition at 5 µg/mL (RelA; [13]): 138%; inhibition at 5 µg/mL (RelA; [14]): 146%; inhibition at 5 µg/mL (RelA; [15]): 142%; inhibition at 5 µg/mL (RelA; [16]): -20%; inhibition at 5 µg/mL (p52; HTS, 5 µg/mL, NPDepo hits, read-out: p52 HTS % Inhibition @ 5 µg/mL): 127%; inhibition at 5 µg/mL (p52; Retest Run1, 5 µg/mL, read-out: p52 Retest % Inhibition @ 5 µg/mL Run1): 132%; inhibition at 5 µg/mL (p52; Retest Run2, 5 µg/mL, read-out: p52 Retest % Inhibition @ 5 µg/mL Run2): 145%; inhibition at 5 µg/mL (p52; Retest average of Run1 and Run2, 5 µg/mL, read-out: p52 Retest % Inhibition @ 5 µg/mL Avg.): 139%; inhibition at 5 µg/mL (p52; kinetic assay, 5 µg/mL, ΔRFU 60 min-0 min, read-out: Kinetic assay @ 5 µg/mL p52 Inhibition % ΔRFU(60 min-0 min)): -13%"
Cc1[nH]c(/C=C2\C(=O)Nc3ccc(S(=O)(=O)Cc4c(Cl)cccc4Cl)cc32)c(C)c1C(=O)N1CCC[C@@H]1CN1CCCC1 [PHA 665752],,,101%,-27%,88.6%,99.1%,93.9%,103%,-31%,88%,99.8%,93.9%,
Nc1ccc2nc3ccc(N)cc3[n+](-c3ccccc3)c2c1.[Cl-] [Phenosafranin],,,,,,,,,,,,,"RelA HTS % Inhibition (RelA; HTS, NPDepo hits): 99.3%; RelA Retest % Inhibition Run1 (RelA): 77.2%; RelA Retest % Inhibition Run2 (RelA): 83.4%; RelA Retest % Inhibition Avg. (RelA): 80.3%; Kinetic assay RelA Inhibition % ΔRFU(60 min-0 min) (RelA; [17]): -12%; p52 HTS % Inhibition (p52; HTS, NPDepo hits): 86.7%; p52 Retest % Inhibition Run1 (p52): 78.7%; p52 Retest % Inhibition Run2 (p52): 85.1%; p52 Retest % Inhibition Avg. (p52): 81.9%; Kinetic assay p52 Inhibition % ΔRFU(60 min-0 min) (p52; [17]): -3.56%"
CCN(CC)CCCC(C)Nc1c2ccc(Cl)cc2nc2ccc(OC)cc12 (stereo not shown) [QUINACRINE HYDROCHLORIDE],-18%,-16%,56.7%,,60.6%,66.3%,63.5%,70.9%,,60.7%,69.7%,65.2%,
CCN(CC)CCCC(C)Nc1c2ccc(Cl)cc2nc2ccc(OC)cc12 (stereo not shown) [Quinacrine dihydrochloride dihydrate],-17%,-17%,,,,,,,,,,,
COc1ccc2[nH]cc(C3=CCNCC3)c2c1.COc1ccc2[nH]cc(C3=CCNCC3)c2c1.O=C(O)CCC(=O)O [RU 24969 hemisuccinate],-19%,-22%,,,,,,,,,,,
Cn1cc(C2=C(c3ccc(Cl)cc3Cl)C(=O)NC2=O)c2ccccc21 [SB 216763],,,146%,-12%,73.3%,82.1%,77.7%,18.6%,-10%,64.6%,76.1%,70.3%,
O=C1NC(=O)c2c1c1c3ccccc3n3c1c1c2c2ccccc2n1C1CCC3O1 [SB 218078],13%,5%,,,,,,,,,,,
Cc1[nH]c(/C=C2\C(=O)Nc3ccccc32)c(C)c1CCC(=O)O [SU 6668],,,29.9%,-15%,32.3%,36.4%,34.3%,33.8%,-12%,29.3%,32.3%,30.8%,
O=C(O)c1cc(O)c2c(c1)[C@H]([C@H]1c3cc(C(=O)O)cc(O)c3C(=O)c3c(O[C@@H]4O[C@H](CO)[C@@H](O)[C@H](O)[C@H]4O)cccc31)c1cccc(O[C@@H]3O[C@H](CO)[C@@H](O)[C@H](O)[C@H]3O)c1C2=O [Sennoside A],,,,,,,,,,,,,Hit Judgement of: RelA (RelA; 1 = judged hit after retest): 1; inhibition at 5 µg/mL (RelA; [12]): 85.4%; inhibition at 5 µg/mL (RelA; [13]): 88.7%; inhibition at 5 µg/mL (RelA; [14]): 100%; inhibition at 5 µg/mL (RelA; [15]): 94.6%; inhibition at 5 µg/mL (RelA; [16]): 31%; Hit Judgement of: p52 (p52; 1 = judged hit after retest): 1
O=C(O)c1cc(O)c2c(c1)[C@@H]([C@H]1c3cc(C(=O)O)cc(O)c3C(=O)c3c(O[C@@H]4O[C@H](CO)[C@@H](O)[C@H](O)[C@H]4O)cccc31)c1cccc(O[C@@H]3O[C@H](CO)[C@@H](O)[C@H](O)[C@H]3O)c1C2=O [Sennoside B],,,,,,,,,,,,,Hit Judgement of: RelA (RelA; 1 = judged hit after retest): 1; inhibition at 5 µg/mL (RelA; [12]): 87.4%; inhibition at 5 µg/mL (RelA; [13]): 74.5%; inhibition at 5 µg/mL (RelA; [14]): 85.1%; inhibition at 5 µg/mL (RelA; [15]): 79.8%; inhibition at 5 µg/mL (RelA; [16]): 73%; Hit Judgement of: p52 (p52; 1 = judged hit after retest): 1
O=C(O[C@H]1C[C@H]2CC[C@@H](C1)[N+]21CCCC1)C(O)(c1ccccc1)c1ccccc1 [TROSPIUM CHLORIDE],,,108%,,,,,116%,,,,,
